Test results published in BigSolDB 2.1.

C#C[C@]1(O)CC[C@H]2[C@@H]3CCC4=CC(=O)CC[C@@H]4[C@H]3C(=C)C[C@@]21CC
solubility (mole fraction)
Settings	278.15 K	283.15 K	288.15 K	293.15 K	298.15 K	303.15 K	308.15 K	313.15 K	318.15 K	323.15 K
in DMF	0.0797	0.084	0.0882	0.093	0.0975	0.102	0.107	0.112	0.117	0.121
in isopropanol	0.00597	0.00697	0.00803	0.00923	0.0106	0.0121	0.0137	0.0156	0.0174	0.0195
in n-propanol	0.00504	0.00579	0.00677	0.00783	0.00901	0.0103	0.0117	0.0132	0.015	0.0168
in water	1.48e-05	1.8e-05	2.15e-05	2.56e-05	3.11e-05	3.69e-05	4.3e-05	5.03e-05	5.85e-05	6.78e-05
